Laboratory results taken from patent US10807968B2, “Substituted 2-(het)arylimidazolylcarboxyamides as pesticides” (Bayer CropScience Aktiengesellschaft, priority 2016, dated 2020).
Read-outs that look alike come from different tables or passages of the source.

Columns and labels:
Myzus persicae [1] = test: Myzus persicae - oral test; assay type: in vivo; details: after 5 days; for pest or weed control at 20 ppm: Myzus persicae, 120 h, read-out: efficacy in % (aphids killed); for efficacy in % (aphids killed): 20 ppm
Description: (§1) Solvent: 100 parts by weight of acetone
Subsequently, the plates are sealed with parafilm, which a mixed population of green peach aphids (Myzus persicae) within a second microtitre plate is able to puncture and imbibe the solution through it.
After 5 days, the efficacy in % is determined. 100% means that all the aphids have been killed; 0% means that no aphids have been killed.

Myzus persicae [2] = test: Myzus persicae - spray test (bell pepper plants); assay type: in vivo; details: 20 ppm, after 6 days
Description: Myzus persicae—Spray Test Solvent: 14 parts by weight of dimethylformamide Emulsifier: alkylaryl polyglycol ether […] To produce further test concentrations, the formulation is diluted with emulsifier-containing water. If the addition of ammonium salts or/and penetrants is required, these are each added in a concentration of 1000 ppm to the formulation solution. Bell pepper plants (Capsicum annuum) severely infested with the green peach aphid (Myzus persicae) are treated by spraying with the active compound formulation in the desired concentration.

[3] = log P determination by HPLC on reversed-phase (C18) columns, OECD Guideline 117; assay type: physicochemical
Description: The log P values were determined in accordance with OECD Guideline 117 (EC Directive 92/69/EEC) by HPLC (high-performance liquid chromatography) using reversed-phase (RP) columns (C18), by the following methods:
[a] The LC-MS determination in the acidic range was carried out at pH 2.7 with 0.1% aqueous formic acid and acetonitrile (contains 0.1% formic acid) as mobile phases; linear gradient from 10% acetonitrile to 95% acetonitrile.
[b] LC-MS determination in the neutral range was carried out at pH 7.8 with 0.001 molar aqueous ammonium hydrogencarbonate solution and acetonitrile as mobile phases; linear gradient from 10% acetonitrile to 95% acetonitrile.

Myzus persicae [4] = test: Myzus persicae - spray test (MYZUPE), comparison with prior art; assay type: in vivo; details: read-out: % efficacy dat
Description: Myzus persicae—Spray Test (MYZUPE)
(§2) Solvent: 78.0 parts by weight of acetone • • 1.5 parts by weight of dimethylformamide
(§3) Emulsifier: alkylaryl polyglycol ether
(§4) To produce a suitable preparation of active compound, 1 part by weight of active compound is dissolved using the specified parts by weight of solvent and made up with water containing an emulsifier concentration of 1000 ppm until the desired concentration is attained. To produce further test concentrations, the formulation is diluted with emulsifier-containing water.
Discs of Chinese cabbage leaves (Brassica pekinensis) infested by all stages of the green peach aphid (Myzus persicae) are sprayed with an active compound preparation of the desired concentration.
After the desired period of time, the efficacy in % is determined. 100% means that all the aphids have been killed; 0% means that no aphids have been killed.

Myzus persicae [5] = test: Myzus persicae - oral test (MYZUPE O), comparison with prior art; assay type: in vivo; details: 120 h, read-out: % efficacy dat
Description: Myzus persicae—Oral Test (MYZUPE O)
as §1
To produce a suitable preparation of active compound, 1 part by weight of active compound is dissolved using the specified parts by weight of solvent and made up with water until the desired concentration is attained.
50 μl of the active compound preparation are transferred into microtitre plates and made up to a final volume of 200 μl with 150 μl of IPL41 insect medium (33%+15% sugar). Subsequently, the plates are sealed with parafilm, which a mixed population of green peach aphids (Myzus persicae) within a second microtitre plate is able to puncture and imbibe the solution through it.
After 5 or 6 days (dat), the efficacy in % is determined. 100% means that all the aphids have been killed; 0% means that no aphids have been killed.

Myzus persicae [6] = test: Myzus persicae - spray test (Chinese cabbage leaf discs); assay type: in vivo; details: 500 g/ha, after 6 days; for pest or weed control at 500 g/ha: Myzus persicae, foliar, 144 h, read-out: efficacy in % (aphids killed)
Description: Myzus persicae—Spray Test
Solvent: 78 parts by weight of acetone • • 1.5 parts by weight of dimethylformamide
as §3
as §4, with “an emulsi fier” for “an emulsifier”
Discs of Chinese cabbage leaves (Brassica pekinensis) infested by all stages of the green peach aphid (Myzus persicae) are sprayed with an active compound formulation of the desired concentration.
After 6 days, the efficacy in % is determined. 100% means that all the aphids have been killed; 0% means that no aphids have been killed.

Tetranychus urticae = Tetranychus urticae - spray test, OP-resistant; assay type: in vivo; details: 500 g/ha, after 6 days, bean leaf discs
Description: Tetranychus Urticae—Spray Test, OP-Resistant
as §2, §3, §4
Discs of bean leaves (Phaseolus vulgaris) infested with all stages of the greenhouse red spider mite (Tetranychus urticae) are sprayed with an active compound formulation of the desired concentration.
After 6 days, the efficacy in % is determined. 100% means that all the spider mites have been killed; 0% means that no spider mites have been killed.

[7] = reversed-phase (C18) HPLC column, pH 2.7, HPLC, acidic range pH 2.7, 0.1% aqueous formic acid/acetonitrile, read-out: logp-acidic
[8] = reversed-phase (C18) HPLC column, pH 7.8, HPLC, neutral range pH 7.8, 0.001 molar aqueous ammonium hydrogencarbonate/acetonitrile, read-out: logp-neutral
[9] = 120 h, MYZUPE, 100 g ai/ha, 5 dat
[10] = 144 h, MYZUPE, 100 g ai/ha, 6 dat
[11] = HPLC, acidic range pH 2.7, 0.1% aqueous formic acid/acetonitrile
[12] = HPLC, neutral range pH 7.8, 0.001 molar aqueous ammonium hydrogencarbonate/acetonitrile

Row | logp-acidic ([3]; pH 2.7) | logp-neutral ([3]; pH 7.8) | Compound | pest or weed control at 20 ppm (Myzus persicae [1]) [%] | chromatographic logP [3, 7] | chromatographic logP [3, 8] | Emax at 4 ppm (Myzus persicae [5]; MYZUPE O, 4 ppm, 5 dat) [%] | pest or weed control at 500 g/ha (Myzus persicae [6]) [%] | efficacy in % (aphids killed) (Myzus persicae [1]) [%] | other results
1 | – | – | CN(C(=O)c1cnc(-c2cc3ccccc3o2)n1C)c1cccnc1 [Example 70] | 100 | – | – | – | – | – | kill in % (aphids killed) (Myzus persicae [2]): 95%; chromatographic logP ([3]; HPLC, acidic range pH 2.7, 0.1% aqueous formic acid/acetonitrile, read-out: logp-acidic): 1.63; chromatographic logP ([3]; HPLC, neutral range pH 7.8, 0.001 molar aqueous ammonium hydrogencarbonate/acetonitrile, read-out: logp-neutral): 1.87
2 | – | – | COc1ccc(-c2ncc(C(=O)N(C)c3cccnc3)n2C)c(OC)n1 [Example 81] | 100 | 0.89 | 1.69 | 70 | 100 | – | Emax at 100 g/ha (Myzus persicae [4]; [9]): 70%
3 | – | – | CN(C(=O)c1cnc(-c2ncccn2)n1C)c1cccnc1 [Example 4] | 100 | 0.35 | 0.73 | 100 | 90 | – | Emax at 100 g/ha (Myzus persicae [4]; [10]): 90%
4 | 2.17 | 2.43 | CN(C(=O)c1cnc(-c2cc(Cl)cc(C(F)(F)F)c2)n1C)c1cccnc1 [Example 51] | – | – | – | – | – | 100 | kill in % (aphids killed) (Myzus persicae [2]): 100%
5 | – | – | O=C(Nc1cccnc1)c1c[nH]cn1 [Comparative Ex. 2, reference compound] | – | – | – | 0 | – | – | Emax at 100 g/ha (Myzus persicae [4]; [10]): 0%
6 | – | – | CN(C)c1ncc(-c2ncc(C(=O)N(C)c3cccnc3)n2C)cc1C#N [Example 65] | 100 | 1.1 | 1.5 | 100 | 100 | – | Emax at 100 g/ha (Myzus persicae [4]; [9]): 90%
7 | – | – | CN(C(=O)c1cnc(-c2cncc(C#N)c2)n1C)c1cccnc1 [Example 64] | 100 | 0.75 | 0.98 | – | 90 | – | Emax at 100 g/ha (Myzus persicae [4]; 120 h): 90%; Emax at 4 ppm (Myzus persicae [5]): 100%
8 | – | – | CN(C(=O)c1cnc(-c2ccc(F)c(C(F)(F)F)c2)n1C)c1cccnc1 [Example 50] | 100 | 1.72 | 2.08 | – | – | – | kill in % (aphids killed) (Myzus persicae [2]): 100%
9 | 1.55 | 1.87 | CC(C)Oc1ccc(-c2ncc(C(=O)N(C)c3cccnc3)n2C)cc1C#N [Example 105] | – | – | – | – | – | 100 | efficacy in % (spider mites killed) (Tetranychus urticae): 100%; efficacy in % (aphids killed) (Myzus persicae [6]): 90%
10 | 2.09 | 2.40 | CN(C(=O)c1cnc(-c2cccc(C(F)(F)C(F)(F)F)c2)n1C)c1cccnc1 [Example 57] | – | – | – | – | – | 100 | efficacy in % (spider mites killed) (Tetranychus urticae): 90%; efficacy in % (aphids killed) (Myzus persicae [6]): 100%
11 | – | – | COc1cc(-c2ncc(C(=O)N(C)c3cccnc3)n2C)cc(C(F)(F)F)n1 [Example 99] | 100 | 2.05 | 2.23 | 100 | 90 | – | Emax at 100 g/ha (Myzus persicae [4]; [9]): 70%
12 | – | – | CN(C(=O)c1cnc(-c2ccc(Cl)cc2Cl)n1C)c1cccnc1 [Example 12] | – | – | – | – | – | 100 | kill in % (aphids killed) (Myzus persicae [2]): 100%; logp-acidic [3, 11]: 1.66
13 | 1.64 | 1.99 | CN(C(=O)c1cnc(-c2cccc(C(F)(F)F)c2)n1C)c1cccnc1 [Example 52] | – | – | – | – | – | 100 | efficacy in % (spider mites killed) (Tetranychus urticae): 90%; efficacy in % (aphids killed) (Myzus persicae [6]): 100%
14 | – | – | COc1ncc(-c2ncc(C(=O)N(C)c3cccnc3)n2C)cc1C#N [Example 68] | 100 | 1.2 | 1.44 | 100 | 100 | – | Emax at 100 g/ha (Myzus persicae [4]; [9]): 100%
15 | – | – | Cc1nc(C(=O)Nc2cccnc2)c[nH]1 [Comparative Ex. 1, reference compound] | – | – | – | 0 | – | – | Emax at 100 g/ha (Myzus persicae [4]; MYZUPE, 100 g ai/ha, 5/6 dat): 0%
16 | – | – | CN(C(=O)c1cnc(-c2ccc(C#N)c(C(F)(F)F)c2)n1C)c1cccnc1 [Example 16] | – | – | – | – | – | – | Emax at 100 g/ha (Myzus persicae [4]; 144 h): 90%; Emax at 4 ppm (Myzus persicae [5]): 100%
17 | 0.73 | 1.35 | CN(C(=O)c1cnc(-c2ccc(F)c(COC(=O)C3CC3)c2)n1C)c1cccnc1 [Example 46] | – | – | – | – | – | 100 | kill in % (aphids killed) (Myzus persicae [2]): 95%
18 | – | – | CCN(C(=O)c1cnc(-c2ccccn2)n1C)c1cccnc1 [Example 77] | – | – | – | – | – | 100 | kill in % (aphids killed) (Myzus persicae [2]): 100%; logp-acidic [3, 11]: 0.97; logp-neutral [3, 12]: 1.39; efficacy in % (aphids killed) (Myzus persicae [6]): 100%
19 | 1.42 | 1.51 | CCOC(=O)c1cc(-c2ncc(C(=O)N(C)c3cccnc3)n2C)on1 [Example 72] | – | – | – | – | – | 100 | efficacy in % (spider mites killed) (Tetranychus urticae): 90%
20 | 1.28 | 1.62 | CN(C(=O)c1cnc(-c2cccc([S+]([O-])C(F)(F)F)c2)n1C)c1cccnc1 (stereo not shown) [Example 49] | – | – | – | – | – | 100 | kill in % (aphids killed) (Myzus persicae [2]): 100%
21 | – | – | COc1cccc(-c2ncc(C(=O)N(C)c3cccnc3)n2C)n1 [Example 78] | 100 | 1.23 | 1.6 | 100 | 90 | – | Emax at 100 g/ha (Myzus persicae [4]; [9]): 70%
22 | – | – | COc1ncc(Cl)cc1-c1ncc(C(=O)N(C)c2cccnc2)n1C [Example 87] | 100 | 1.35 | 1.64 | 100 | 100 | – | Emax at 100 g/ha (Myzus persicae [4]; [9]): 90%
23 | – | – | COc1cc(C#N)cc(-c2ncc(C(=O)N(C)c3cccnc3)n2C)c1 [Example 100] | – | – | – | – | – | 100 | logp-acidic [3, 11]: 1.34; logp-neutral [3, 12]: 1.57; efficacy in % (aphids killed) (Myzus persicae [6]): 90%
24 | 1 | 1.26 | COc1cc(-c2ncc(C(=O)N(C)c3cccnc3)n2C)ccn1 [Example 94] | – | – | – | – | – | 100 | efficacy in % (aphids killed) (Myzus persicae [6]): 90%
